From US20220009914A1, “Analogs of Nitrofuran Antibiotics to Combat Resistance” (The Trustees of Indiana University, priority 2020, published 2022)

Legend:
[1] = test system: Enterobacter cloacae strain CDC 442-68 (ATCC #13047); test: bacterial proliferation assay, E. cloacae; type: cell-based; conditions: ATCC13047, read-out: Bacterial Proliferation EC50 E. cloacae
Method: All compounds were evaluated for inhibiting the proliferation of E. coli and each of the ESKAPE bacteria. Results presented represent the averages of EC50 values obtained from at least four replicates. Evaluating compounds for inhibition of bacterial cell proliferation.
Growth Media: E. coli were grown with LB medium and all ESKAPE bacteria were grown in Brain Heart Infusion (BHI) medium (Becton, Dickinson and Company), with all liquid cultures supplemented with 25 mg/L Ca^2+ and 12.5 mg/L Mg^2+ to mimic physiological free concentrations of these cations. A 10 mg/mL Ca^2+ stock solution was prepared by dissolving 1.84 g of CaCl2.2H2O in 50 mL of deionized water, and a 10 mg/mL Mg^2+ stock solution was prepared by dissolving 4.18 g of MgCl2.6H2O in 50 mL deionized water—filter sterilized using 0.2 μm cellulose-acetate filters. 2.5 mL of the sterile 10 mg/mL Ca^2+ stock and 1.25 mL of the sterile 10 mg/mL Mg^2+ stock solutions were added per 1 L of autoclaved LB or BHI media to obtain 25 mg/L Ca^2+ and 12.5 mg/L Mg^2+ ions, respectively.
General Assay Protocol: Stock bacterial cultures were streaked onto LB or BHI agar plates and grown overnight at 37° C. Fresh aliquots of cation supplemented media were inoculated with single bacterial colonies and the cultures were grown overnight at 37° C. with shaking (240 rpm). The following morning, cultures were diluted 10-fold into fresh media and grown at 37° C. until bacteria had reached mid-log phase growth (OD600˜0.4-0.6). The cultures were then diluted into fresh media to achieve final OD600 readings of 0.017. Aliquots of these diluted cultures (30 μL) were added to clear, flat-bottom 384-well polystyrene plates that were previously stamped with 0.5 μL of test compounds in 20 μL of media (yielding initial OD600=0.01 bacterial cultures). All compounds were tested in dose-response with concentration ranges during the proliferation assays from 100 μM to 46 nM (3-fold dilution series). A second set of baseline control plates were prepared analogously, but without any bacteria added, to correct for possible compound absorbance and/or precipitation. […] Plates were then read at 600 nm using a Molecular Devices SpectraMax Plus384 microplate reader. […] Results presented represent the averages of EC50 values obtained from at least four replicates.
Evaluating analogs for inhibiting the growth of E. coli and the ESKAPE bacteria. Analogs were initially tested for antibacterial efficacy against representative strains of antibiotic-sensitive E. coli and the ESKAPE bacteria. To determine compound efficacy, bacterial proliferation assays were carried out in liquid media culture supplemented with physiological concentrations of free calcium and magnesium cations. For these assays, bacterial cultures (OD600=0.01) were exposed to test compounds in 8-point, 3-fold dilution series (100 μM to 46 nM concentration range), in 384-well plates. After addition of compounds to cultures, the plates were sealed with Breathe-Easy gas permeable membranes and allowed to grow to mid-log phase (OD600˜0.4-0.6), whereupon final OD600 readings were taken to assess for bacterial growth and inhibition.

in vitro [2] = conditions: human
Method: (§1) Evaluating compound effects on the viability of human colon and small intestine cells. […] Evaluating compound effects on the viability of human colon and small intestine cells. Evaluation of compound cytotoxicities to FHC colon and FHs 74 Int small intestine cells were performed using Alamar Blue-based viability assays. […] FHs 74 Int cells were maintained in Hybri-care medium (ATCC 46-X) supplemented with 30 ng/mL recombinant epidermal growth factor (EGF) and 10% FBS (Midwest Scientific, USDAFBS).

in vitro [3] = conditions: human; remark: listed apart in the source
Method: as §1

`O=C(N/N=C/c1ccc(O)c2ncccc12)c1ccc(NS(=O)(=O)c2cccs2)cc1` [Compound 13, N-(4-(2-((8-hydroxyquinolin-5-yl)methylene)hydrazine-1-carbonyl)phenyl)thiophene-2-sulfonamide] gave an EC50 [1] greater than 100 µM.

In the case of `O=C(N/N=C/c1ccc(O)c2ncccc12)c1cccc2ccccc12` [Compound 9, N′-((8-hydroxyquinolin-5-yl)methylene)-1-naphthohydrazide], the EC50 [1] is reported as greater than 100 µM.

`O=C(N/N=C/c1ccc([N+](=O)[O-])o1)c1ccccc1Oc1ccccc1` [Compound 23, N′-((5-nitrofuran-2-yl)methylene)-2-phenoxybenzohydrazide] showed an EC50 [1] greater than 100 µM.

Compound `COc1ccc(C(=O)N/N=C/c2ccccc2)cc1` [Compound 37, N′-benzylidene-4-methoxybenzohydrazide] has an EC50 [1] greater than 100 µM, a CC50 at 48 h (in vitro [2]) greater than 100 µM and a CC50 at 48 h (in vitro [3]) greater than 100 µM.

In the case of `O=C(N/N=C/c1ccc(O)c2ncccc12)c1ccccc1` [Compound 5, N′-((8-hydroxyquinolin-5-yl)methylene)benzohydrazide], the EC50 [1] is reported as 80 µM.

With `O=C(N/N=C/c1ccc(O)c2ncccc12)c1cccc(Oc2ccccc2)c1` [Compound 11, N′-((8-hydroxyquinolin-5-yl)methylene)-3-phenoxybenzohydrazide] the EC50 [1] was greater than 100 µM.

In the case of `O=C(N/N=C/c1ccc([N+](=O)[O-])o1)c1ccc(NS(=O)(=O)c2cccs2)cc1` [Compound 26, N-(4-(2-((5-nitrofuran-2-yl)methylene)hydrazine-1-carbonyl)phenyl)thiophene-2-sulfonamide], the EC50 [1] is reported as greater than 100 µM, the CC50 at 48 h (in vitro [2]) is reported as greater than 100 µM and the CC50 at 48 h (in vitro [3]) is reported as 70 µM.

`O=C(N/N=C/c1ccc(O)c2ncccc12)c1ccc(NS(=O)(=O)c2ccc(Br)cc2)cc1` [Compound 14, 4-bromo-N-(4-(2-((8-hydroxyquinolin-5-yl)methylene)hydrazine-1-carbonyl)phenyl)benzenesulfonamide] gave an EC50 [1] greater than 100 µM.

With `COc1ccc(C(=O)N/N=C/c2ccc(O)c3ccccc23)cc1` [Compound 29, N′-((4-hydroxynaphthalen-1-yl)methylene)-4-methoxybenzohydrazide] the EC50 [1] was greater than 100 µM, the CC50 at 48 h (in vitro [2]) was greater than 100 µM and the CC50 at 48 h (in vitro [3]) was greater than 100 µM.

`CCN(CC)S(=O)(=O)c1cccc(C(=O)N/N=C/c2ccc([N+](=O)[O-])o2)c1` [Compound 25, N,N-diethyl-3-(2-((5-nitrofuran-2-yl)methylene)hydrazine-1-carbonyl)benzenesulfonamide] gave an EC50 [1] greater than 100 µM, a CC50 at 48 h (in vitro [2]) greater than 100 µM and a CC50 at 48 h (in vitro [3]) greater than 100 µM.

`CCOc1ccc(S(=O)(=O)Nc2ccc(C(=O)N/N=C/c3ccc(O)c4ncccc34)cc2)cc1` [Compound 15, 4-ethoxy-N-(4-(2-((8-hydroxyquinolin-5-yl)methylene)hydrazine-1-carbonyl)phenyl)benzenesulfonamide] showed an EC50 [1] greater than 100 µM.

Compound `COc1ccc(C(=O)NN)cc1` [Compound 42, reference compound] has an EC50 [1] greater than 100 µM, a CC50 at 48 h (in vitro [2]) greater than 100 µM and a CC50 at 48 h (in vitro [3]) greater than 100 µM.

For `O=C(N/N=C/c1ccc(O)cc1)c1ccccc1` [Compound 36, N′-(4-hydroxybenzylidene)benzohydrazide], the EC50 [1] was greater than 100 µM, the CC50 at 48 h (in vitro [2]) was greater than 100 µM and the CC50 at 48 h (in vitro [3]) was greater than 100 µM.

With `CN(C)c1ccc(C(=O)N/N=C/c2ccc(O)c3ncccc23)cc1` [Compound 8, 4-(dimethylamino)-N′-((8-hydroxyquinolin-5-yl)methylene)benzohydrazide] the EC50 [1] was greater than 100 µM.

`O=C(N/N=C/c1ccc(O)c2ncccc12)c1cccs1` [Compound 3, N′-((8-hydroxyquinolin-5-yl)methylene)thiophene-2-carbohydrazide] showed an EC50 [1] of 92 µM, a CC50 at 48 h (in vitro [2]) of 85 µM and a CC50 at 48 h (in vitro [3]) of 86 µM.

`COc1ccc(C(=O)N/N=C/c2ccc(O)cc2)cc1` [Compound 35, N′-(4-hydroxybenzylidene)-4-methoxybenzohydrazide] gave an EC50 [1] greater than 100 µM, a CC50 at 48 h (in vitro [2]) greater than 100 µM and a CC50 at 48 h (in vitro [3]) greater than 100 µM.

`O=C(N/N=C/c1ccc(O)c2ncccc12)c1ccncc1` [Compound 6, N′-((8-hydroxyquinolin-5-yl)methylene)isonicotinohydrazide] showed an EC50 [1] greater than 100 µM, a CC50 at 48 h (in vitro [2]) greater than 100 µM and a CC50 at 48 h (in vitro [3]) of 75 µM.

For `CCOc1ccc(S(=O)(=O)Nc2ccc(C(=O)N/N=C/c3ccc([N+](=O)[O-])o3)cc2)cc1` [Compound 28, 4-ethoxy-N-(4-(2-((5-nitrofuran-2-yl)methylene)hydrazine-1-carbonyl)phenyl)benzenesulfonamide], the EC50 [1] was greater than 100 µM, the CC50 at 48 h (in vitro [2]) was 85 µM and the CC50 at 48 h (in vitro [3]) was greater than 100 µM.

For `O=[N+]([O-])c1ccc(O)c2ncccc12` [Nitroxoline, reference compound], the EC50 [1] was 6.6 µM.

Compound `O=C(N/N=C/c1cccc2ncccc12)c1ccccc1` [Compound 32, N′-(quinolin-5-ylmethylene)benzohydrazide] has an EC50 [1] greater than 100 µM, a CC50 at 48 h (in vitro [2]) greater than 100 µM and a CC50 at 48 h (in vitro [3]) greater than 100 µM.

In the case of `O=C1CN(/N=C/c2ccc(O)c3ncccc23)C(=O)N1` [Compound 2, 1-(((8-hydroxyquinolin-5-yl)methylene)amino)imidazolidine-2,4-dione], the EC50 [1] is reported as greater than 100 µM, the CC50 at 48 h (in vitro [2]) is reported as greater than 100 µM and the CC50 at 48 h (in vitro [3]) is reported as greater than 100 µM.

In the case of `CCN(CC)S(=O)(=O)c1cccc(C(=O)N/N=C/c2ccc(O)c3ncccc23)c1` [Compound 12, N,N-diethyl-3-(2-((8-hydroxyquinolin-5-yl)methylene)hydrazine-1-carbonyl)benzenesulfonamide], the EC50 [1] is reported as greater than 100 µM.

Compound `O=C(N/N=C/c1ccc(O)c2ncccc12)c1ccc(Cl)s1` [Compound 4, 5-chloro-N′-((8-hydroxyquinolin-5-yl)methylene)thiophene-2-carbohydrazide] has an EC50 [1] greater than 100 µM.

`O=C(N/N=C/c1ccc(O)c2ccccc12)c1ccccc1` [Compound 30, N′-((4-hydroxynaphthalen-1-yl)methylene)benzohydrazide] gave an EC50 [1] greater than 100 µM, a CC50 at 48 h (in vitro [2]) greater than 100 µM and a CC50 at 48 h (in vitro [3]) greater than 100 µM.

With `COc1ccc(C(=O)N/N=C/c2cccc3ncccc23)cc1` [Compound 31, 4-methoxy-N′-(quinolin-5-ylmethylene)benzohydrazide] the EC50 [1] was greater than 100 µM, the CC50 at 48 h (in vitro [2]) was greater than 100 µM and the CC50 at 48 h (in vitro [3]) was greater than 100 µM.

`COc1ccc(C(=O)N/N=C/c2cccc3ccccc23)cc1` [Compound 33, 4-methoxy-N′-(naphthalen-1-ylmethylene)benzohydrazide] showed an EC50 [1] greater than 100 µM, a CC50 at 48 h (in vitro [2]) greater than 100 µM and a CC50 at 48 h (in vitro [3]) greater than 100 µM.

`O=C(N/N=C/c1ccccc1)c1ccccc1` [Compound 38, N′-benzylidenebenzohydrazide] gave an EC50 [1] greater than 100 µM, a CC50 at 48 h (in vitro [2]) greater than 100 µM and a CC50 at 48 h (in vitro [3]) greater than 100 µM.

`O=C(N/N=C/c1ccc([N+](=O)[O-])o1)c1cccc(Oc2ccccc2)c1` [Compound 24, N′-((5-nitrofuran-2-yl)methylene)-3-phenoxybenzohydrazide] gave an EC50 [1] greater than 100 µM.

Work on `O=C(N/N=C/c1ccc(O)c2ncccc12)c1ccc(O)cc1` [Compound 7, 4-hydroxy-N′-((8-hydroxyquinolin-5-yl)methylene)benzohydrazide] yielded an EC50 [1] of 97 µM, a CC50 at 48 h (in vitro [2]) greater than 100 µM and a CC50 at 48 h (in vitro [3]) of 67 µM.

Work on `O=C(N/N=C/c1ccc([N+](=O)[O-])o1)c1cccc2ccccc12` [Compound 22, N′-((5-nitrofuran-2-yl)methylene)-1-naphthohydrazide] yielded an EC50 [1] greater than 100 µM.

`O=C(N/N=C/c1cccc2ccccc12)c1ccccc1` [Compound 34, N′-(naphthalen-1-ylmethylene)benzohydrazide] gave an EC50 [1] greater than 100 µM, a CC50 at 48 h (in vitro [2]) greater than 100 µM and a CC50 at 48 h (in vitro [3]) greater than 100 µM.

`COc1ccc(C(=O)N/N=C/c2ccco2)cc1` [Compound 39, N′-(furan-2-ylmethylene)-4-methoxybenzohydrazide] gave an EC50 [1] greater than 100 µM, a CC50 at 48 h (in vitro [2]) greater than 100 µM and a CC50 at 48 h (in vitro [3]) greater than 100 µM.

Work on `O=C(N/N=C/c1ccc(O)c2ncccc12)c1ccccc1Oc1ccccc1` [Compound 10, N′-((8-hydroxyquinolin-5-yl)methylene)-2-phenoxybenzohydrazide] yielded an EC50 [1] greater than 100 µM.
